Experiments:
ARPE-19 cells [1] = assay: Lysosomal pH (pHL) with LysoSensor Yellow/Blue, high through-put screen; assay type: cell-based, human; settings: for effect on pHL of cells treated with tamoxifen: tamoxifen concentration not stated, A68930 and A77636 at 1 μM; for effect on pHL, agent alone: cells without other alkalinizing agent, NH4Cl 10 mM, BAF 200 nM, CHQ 20 μM, CFTR-172 10 μM, LDL 10 μg/ml, others not given; for effect on pHL of cells treated with chloroquine: chloroquine (20 μM with CGS21680 100 nM); for effect on pHL of cells treated with 30 μM tamoxifen: CFTRAct16 at 10 μM
Method: Lysosensor Yellow/Blue co-localized with the Lysotracker Red dye in small vesicles, with a distribution consistent with lysosomal origin. Measurements of pHL were performed using a high throughput screening (HTS) protocol to maximize output and minimize variation using ARPE-19 cells in 96 well plates. […] Loading for 5 min. at 23° C. with 5 μM lysosensor, followed by 15 min. for internalization, produced stable and reproducible results.
The ratio was converted to pH by calibrating with KCl buffered to pH 4.0-6.0 in the presence of monensin and nigericin. Calibration indicated a baseline pH of 4.4 to 4.5, supporting lysosomal localization. […] NH4Cl decreased the ratios slightly at 380 nm. Nevertheless, absent the addition of the dye, none of these compounds, or any others, altered the fluorescent signal at 340 or 380 nm, showing a specificity of the measured change to pHL. […] This quantification is necessary to predict the potential effectiveness of acidifying drugs to restore lysosomal enzyme activity.
Extensive trials determined that the optimal response is obtained with 5 minute dye loading and 15 minute post-incubation. […] All reagents were from Sigma Chemical Corp. unless otherwise indicated.
In general, each condition below used 3-12 independent wells per plate, in 3-6 separate plates. As levels from individual plates varied, data was normalized to the mean pHL for control wells from each plate. Fluorescent ratios were converted to pH following calibration performed on each plate as described. Incubation with Lysosensor Yellow/Blue was kept constant and all measurements were performed 15 min after removal of dye from the bath to ensure continuity. Significance was determined with a one-way ANOVA and Tukey post test. Drugs were always tested on control cells to ensure modification of healthy RPE cells was minimal, and cells were not exposed to dye to make sure effects were specific. All background was subtracted from the fluorescence excited at 340 and 380 nm independently before calculation of the ratio.

ARPE-19 cells [2] = assay: FACS analysis of autofluorescence (excited at 488 nm); assay type: cell-based, human; settings: for effect on autofluorescence enhanced by POS+CHQ: photoreceptor outer segments plus 10 μM chloroquine, 7 days
From the text: To maintain a balance between the synthesis, degradation, and subsequent recycling of cellular products there are a variety of autophagic responses, but all involve degradation of intracellular components via the lysosome. Typically, autophagy involves the formation of a membrane around a targeted region of the cell, separating the contents from the rest of the cytoplasm, and then the resultant vesicle fuses with a lysosome and the contents are subsequently degraded.

ARPE-19 cells [3] = assay: Clearance (degradation) of calcein-labeled photoreceptor outer segments; assay type: cell-based, human
Method: Outer Segment Degradation: Bovine retinas were homogenized in 20% sucrose with 130 mM NaCl, 20 mM Tris-HCl, 10 mM glucose, 5 mM taurine and 2 mM MgC12 (pH 7.20). The homogenate was placed in ultracentrifuge tubes with 20%, 27%, 33%, 41%, 50% and 60% sucrose, respectively, and centrifuged for 70 minutes at 28,000 rpm on a SW28 rotor (4° C.). The supernatant was filtered, diluted in 0.02M Tris-HCl buffer (pH 7.2) and centrifuged at 13,000×g for 10 minutes (4° C.). The pellet was resuspended in […], 0.1 mM NaCl and 2.5% sucrose. Outer segments were loaded with 5 μM calcein-AM in PBS for 10 minutes, and spun 2× at 14,000 rpm to wash. Outer segments were then diluted 1:100 in growth medium and added to ARPE-19 cells in 96-well plates.
Isolated bovine outer segments loaded with calcein were supplied to ARPE-19 cells in 96-well plates for 2 hrs, washed 3× and maintained in control medium for an additional 3 hr (see Methods). […] Promising compounds were examined for their effects on cells treated with A2E, although the restoration of pHL is unlikely to remove A2E itself. However, other components of the outer segments are amendable to digestion by lysosomal enzymes at the appropriate pHL, and acidification could minimize the secondary effect of this accumulation.

[4] = tested on: primary cultures of bovine RPE cells; assay: Lysosomal pH in primary bovine RPE cultures; assay type: cell-based
Method: Isolation of Bovine and Mouse RPE Cells: The bovine RPE-choroid and sclera were removed, incubated in 2.5% trypsin at 37° C. in 5% CO2 for 30 min, after which RPE sheets are dissected, washed and plated in 96-well plates with 10% serum medium. Mouse eyes were incubated in DMEM for 3 hrs at room temperature (RT), then in 0.1% trypsin and 0.4 mg/ml collagenase IV with 1 mM EDTA for 45 min at RT. RPE sheets were dissected out, washed, and incubated with 0.25% trypsin/0.02% EDTA in order to obtain a suspension of single cells, then grown as above.
HTS Measurement of pHL: ARPE-19 cells were grown in 96-well plates, rinsed 3× with isotonic solution (IS; prepared from NaCl 105 mM, KCl 5 mM, HEPES Acid 6 mM, Na HEPES 4 mM, NaHCO3 5 mM, mannitol 60 mM, glucose 5 mM, MgCl2 0.5 mM, CaCl2 1.3 mM) and incubated with 5 μM LysoSensor Yellow/Blue (Invitrogen Corp.) diluted with IS. Extensive trials determined that the optimal response is obtained with 5 minute dye loading and 15 minute post-incubation. Fluorescence was measured with a Fluoroskan 96-well Plate Reader (Thermo Electron Corp.). pHL was determined from the ratio of light excited at 340 nm vs 380 nm ([…] em). pHL was calibrated by exposing cells to 10 μM H^+/Na^+ ionophore monensin and 20 μM H^+/K^+ ionophore nigericin in 20 MES, 110 KCl and 20 NaCl at pH 3.0-7.0 for 15 min. All reagents were from Sigma Chemical Corp. unless otherwise indicated.

ABCA4−/− mice = assay: Oral P2Y12 inhibitor in ABCA4-/- mice, lysosomal pH of RPE cells; assay type: in vivo, mouse; settings: 9-11 month old mice, 50 mg/kg orally, single dose, cells removed 4 hrs later
Method: In this example the selected P2Y12 inhibitor was clopidogrel (commercially available as Plavix), but the invention need not be so limited, and other P2Y12 inhibitors, such as AR-C66096, may be used. The clopidogrel was given orally at 50 mg/kg and the pH measured from RPE cells that were removed 4 hrs later.

Nc1ncnc2c1nc(Br)n2[C@@H]1O[C@@H]2COP(=O)(O)O[C@H]2[C@H]1O [8-Br-cAMP, 8-bromo-adenosine 3′,5′-cyclic monophosphate]
effect on pHL of cells treated with 10 μM tamoxifen (ARPE-19 cells [1]): not significant

C[C@]12CC[C@@H]3c4ccc(O)cc4CC[C@H]3[C@@H]1CC[C@@H]2O [17-β estradiol]
effect on pHL of cells treated with tamoxifen (ARPE-19 cells [1]): neither mimicked, nor inhibited

CCCSc1nc(N)c2ncn([C@@H]3O[C@H](COP(=O)([O-])OP(=O)([O-])C(F)(F)P(=O)([O-])[O-])[C@@H](O)[C@H]3O)c2n1.[Na+].[Na+].[Na+].[Na+] [AR-C66096, 2-(Propylthio) adenosine-5′-O-(β,γ-difluoromethylene) triphosphate tetrasodium salt]
effect on pHL elevation by P2Y12 agonist MeSADP (ARPE-19 cells [1]; cells stimulated with MeSADP): inhibited these actions and restored lysosomal acidity
effect on autofluorescence enhanced by POS+CHQ (ARPE-19 cells [2]): reduced this enhanced auto-fluorescence to near control levels

CCOc1ccc(Nc2ccc(/C(=C3C=C/C(=[N+](/CC)Cc4cccc(S(=O)(=O)[O-])c4)C=C/3C)c3ccc(N(CC)Cc4cccc(S(=O)(=O)[O-])c4)cc3C)cc2)cc1.[Na+] [BBG]
effect on pHL rise by P2X7 agonist BzATP (ARPE-19 cells [1]; cells stimulated with BzATP): prevented this rise
effect on autofluorescence enhanced by POS+CHQ (ARPE-19 cells [2]): reduced this enhanced autofluorescence

O=C(O)c1ccc(/C=C2\SC(=S)N(c3cccc(C(F)(F)F)c3)C2=O)cc1 [CFTR-172]
effect on pHL, agent alone (ARPE-19 cells [1]): increased lysosomal pH

CCNC(=O)[C@H]1O[C@@H](n2cnc3c(N)nc(NCCc4ccc(CCC(=O)O)cc4)nc32)[C@H](O)[C@@H]1O [CGS21680]
effect on pHL of cells treated with 10 μM tamoxifen (ARPE-19 cells [1]): Over half of the increase triggered by 10 μM tamoxifen was reversed
effect on pHL of cells treated with chloroquine (ARPE-19 cells [1]): decreased the lysosomal alkalinization
effect on pHL of cells treated with tamoxifen (ARPE-19 cells [1]): acidified the lysosomes
degradative capacity (outer segment clearance) in chloroquine-treated cells (ARPE-19 cells [3]; 100 nM CGS with 20 μM CHQ, 24 hrs): restored the degradative capacity

OC[C@H]1O[C@@H](n2cnc3c(NC4CCCC4)ncnc32)[C@H](O)[C@@H]1O [CPA, N^6-cyclopentyl-adenosine]
effect on pHL of cells treated with tamoxifen (ARPE-19 cells [1]): had no effect

OC[C@H]1O[C@@H](n2cnc3c(NC4CC5CCC4C5)ncnc32)[C@H](O)[C@@H]1O (stereo partly drawn) [ENBA, (2S)-N^6-[2-endo-norbornyl]adenosine]
effect on pHL of cells treated with tamoxifen (ARPE-19 cells [1]): had no effect

CSc1nc(N)c2ncn([C@@H]3O[C@H](COP(=O)(O)OP(=O)(O)O)[C@@H](O)[C@H]3O)c2n1 [MeSADP]
effect on pHL, agent alone (ARPE-19 cells [1]): elevated the lysosomal pHL

CCNC(=O)[C@H]1O[C@@H](n2cnc3c(N)ncnc32)[C@H](O)[C@@H]1O [NECA, 5′-(N-ethylcarboxamido) adenosine]
effect on pHL of cells treated with tamoxifen (ARPE-19 cells [1]): reversed lysosomal alkalinization by tamoxifen
effect on pHL of bovine cells treated with tamoxifen [4]: not quite significant

O=C(O)c1cc([N+](=O)[O-])ccc1NCCCc1ccccc1 [NPPB, 5-nitro-2-(3-phenylpropylamino)-benzoate]
effect on pHL of cells treated with tamoxifen (ARPE-19 cells [1]): reversed

Nc1ncnc2c1ncn2[C@@H]1O[C@H](CO)[C@@H](O)[C@H]1O [adenosine]
effect on pHL of cells treated with tamoxifen (ARPE-19 cells [1]): reduce the pHL
effect on pHL of bovine cells treated with tamoxifen [4]: acidified the lysosomes

CO/C1=C\C(C)=C\[C@@H](C)[C@@H](O)[C@@H](C)C/C(C)=C/C=C/[C@H](OC)[C@@H]([C@@H](C)[C@@H](O)[C@H](C)[C@@]2(O)C[C@@H](O)[C@H](C)[C@@H](C(C)C)O2)OC1=O [bafilomycin-A]
effect on pHL, agent alone (ARPE-19 cells [1]): pH was elevated

CCN(CC)CCCC(C)Nc1ccnc2cc(Cl)ccc12 (stereo not shown) [chloroquine]
effect on pHL, agent alone (ARPE-19 cells [1]): pH was elevated
autofluorescence, agent alone (ARPE-19 cells [2]; 10 μM for 7 days): increased autofluorescence

COC(=O)[C@H](c1ccccc1Cl)N1CCc2sccc2C1 [clopidogrel]
lysosomal pHL in RPE cells after single oral dose (ABCA4−/− mice): reduced

Nc1ncnc2c1nc(Sc1ccc(Cl)cc1)n2[C@@H]1O[C@@H]2COP(=O)([O-])O[C@H]2[C@H]1O.[Na+] [cpt-cAMP, 8-(4-chlorophenylthio) adenosine-3′,5′-cyclic monophosphate]
effect on pHL of cells treated with 10 μM tamoxifen (ARPE-19 cells [1]): significantly decreased pHL
effect on pHL of cells treated with 30 μM tamoxifen (ARPE-19 cells [1]): significantly decreased pHL

CCN[C@H]1C[C@H](C)S(=O)(=O)c2sc(S(N)(=O)=O)cc21 [dorzolamide]
effect on pHL of cells treated with 30 μM tamoxifen (ARPE-19 cells [1]): did not lower pHL

CNC[C@H](O)c1ccc(O)c(O)c1 [epinephrine]
effect on pHL of cells treated with tamoxifen (ARPE-19 cells [1]): significantly decrease pHL

O=c1c(-c2ccc(O)cc2)coc2cc(O)cc(O)c12 [genistein]
effect on pHL, agent alone (ARPE-19 cells [1]): smaller effects
effect on pHL of cells treated with tamoxifen (ARPE-19 cells [1]): acidified lysosomes

COc1ccc(Cl)cc1C(=O)NCCc1ccc(S(=O)(=O)NC(=O)NC2CCCCC2)cc1 [glybenclamide]
effect on pHL, agent alone (ARPE-19 cells [1]): smaller effects
effect on pHL of cells treated with tamoxifen (ARPE-19 cells [1]): increased pHL

CC(C)NCC(O)c1ccc(O)c(O)c1 (stereo not shown) [isoproterenol]
effect on pHL of cells treated with tamoxifen (ARPE-19 cells [1]): significantly decrease pHL

CC(C)OC(=O)CCC/C=C\C[C@@H]1[C@@H](CC[C@@H](O)CCc2ccccc2)[C@H](O)C[C@@H]1O [latanaprost]
effect on pHL of cells treated with 30 μM tamoxifen (ARPE-19 cells [1]): did not lower pHL

NC[C@H](O)c1ccc(O)c(O)c1 [norepinephrine]
effect on pHL of cells treated with chloroquine (ARPE-19 cells [1]): reduced pHL
effect on pHL of cells treated with tamoxifen (ARPE-19 cells [1]): significantly decrease pHL

CNC[C@H](O)c1cccc(O)c1 [phenylephrine]
effect on pHL of cells treated with tamoxifen (ARPE-19 cells [1]): no significant effect on pHL

CN[C@@H]1C[C@H]2O[C@@](C)([C@@H]1OC)n1c3ccccc3c3c4c(c5c6ccccc6n2c5c31)C(=O)NC4 [staurosporine]
effect on pHL of cells treated with tamoxifen (ARPE-19 cells [1]): decrease in lysosomal pH

CC/C(=C(\c1ccccc1)c1ccc(OCCN(C)C)cc1)c1ccccc1 [tamoxifen]
time for elevated lysosomal pH to reach a plateau (ARPE-19 cells [1]): 10-15 minutes
effect on pHL, agent alone (ARPE-19 cells [1]): raised pHL
clearance of calcein-labeled outer segments, alkalinizing agent alone (ARPE-19 cells [3]; after 24 hrs): slowed clearance of outer segments
effect on pHL, agent alone [4]: increased pHL

CC(C)(C)NC[C@H](O)COc1nsnc1N1CCOCC1 [timolol]
effect on pHL of cells treated with 30 μM tamoxifen (ARPE-19 cells [1]): did not lower pHL
effect on the reduction of pHL triggered by norepinephrine (ARPE-19 cells [1]; cells treated with tamoxifen plus norepinephrine): blocked

— patent publication US8828966B2, “Method for treatment of macular degeneration by modulating P2Y12 or P2X7 receptors” (priority 2006, dated 2014)
